The values that follow come from the OPERA property sets (Mansouri et al. 2018).

Each structure is given as a SMILES string. Where a SMILES comes first, the peptide text is derived from it.

Broadly, the logP is a log measure of how a compound divides between an organic and an aqueous phase. Higher therefore signals higher lipophilicity.

Regarding `CCOC(=O)C(NC(=O)CCCCSc1[nH]cnc2ncnc1-2)c1ccccc1` (stereo not drawn), the lipophilicity (logP) is 1.13.

The compound `CC(C)(C)NCC(O)COCCCc1ccccc1` (stereo not drawn) gave a logP of 2.58.

As to `Nc1nc(NCCO)c(Cl)nc1[N+](=O)[O-]`, the log partition coefficient (logP) worked out at 0.12.

Turning to `CC(=O)N[C@@H](Cc1c[nH]c2ccccc12)C(=O)N[C@@H](C)C(=O)N[C@@H](C)C(N)=O` (Ac-Trp-Ala-Ala-NH2), the logP is -0.38.

`CCC1CC2C3CCC4=CC(=O)CCC4C3CCC2(C)C1C(=O)CF` (stereo not drawn) returned a lipophilicity (logP) of 4.66.

For the compound `Clc1ccc(Cl)c(-c2c(Cl)c(Cl)c(Cl)c(Cl)c2Cl)c1`, the logP was found to be 7.93.

In turn, `COc1cc(C)c2c(c1OC)-c1ccc(NCc3ccccc3)c(=O)cc1C(NC(C)=O)CC2` (stereo not drawn) displayed a log partition coefficient (logP) of 3.58.

Regarding `CC(C)(C)C(=O)C(C#N)=NNc1cc(C(F)(F)F)cc(C(F)(F)F)c1`, the lipophilicity (logP) was 5.44.

Regarding `C#CCOc1c(Cl)cc(NC=NOCc2ccccc2)cc1Cl`, the logP was determined as 4.2.

The compound `CC(C)(C)c1ccc2c(c1)OCCOCCOCCOCCO2` displayed a log partition coefficient (logP) of 2.26.

Take `CC(=NOCC(=O)O)c1cc(Oc2ccc(C(F)(F)F)cc2Cl)ccc1[N+](=O)[O-]`: the lipophilicity (logP) is 4.3.

`COc1ccc(C(=O)NP(=O)(N2CC2)N2CC2)cc1` returned a log partition coefficient (logP) of 1.08.

As to `CCC1COC(Cn2cncn2)(c2ccc(C(=N)N)cc2)O1` (stereo not drawn), the logP was 0.85.

As to `O=C(O)c1ccccc1N1C(=O)CCC1=O`, the lipophilicity (logP) was found to be 1.55.

As for `CCCN1C(=O)C(=O)c2ccccc2C1=O`, the logP was 1.6.

`O=C1C(=O)N(c2ccccc2)C(=O)c2ccccc21` showed a logP of 1.14.

The compound `CCCCN1C(=O)NC(=O)C(=O)C1=O` registered a log partition coefficient (logP) of 0.81.

In turn, `CC(=O)OC1CC(OC2C(O)CC(OC3CCC4(C)C(CCC5C4CC(O)C4(C)C(C6=CC(=O)OC6)CCC54O)C3)OC2C)OC(C)C1OC1CC(O)C(O)C(C)O1` (stereo not drawn) registered a logP of 2.

Consider `O=C1NC(=O)C(=O)C(=O)N1`, for which the lipophilicity (logP) was -1.84.

The compound `O=C(NN1CCCCC1)NS(=O)(=O)c1ccc(Cl)cc1` registered a logP of 0.84.

For the compound `O=[N+]([O-])C=C1NCCN1c1ccc(Cl)nc1`, the log partition coefficient (logP) is -0.23.

In the case of `O=C(NN=Cc1ccco1)Nc1ccccc1`, the lipophilicity (logP) was 2.52.

`Oc1cccc(Cl)n1` gave a lipophilicity (logP) of 0.93.

In the case of `Clc1cc(-c2c(Cl)c(Cl)c(Cl)c(Cl)c2Cl)c(Cl)c(Cl)c1Cl`, the logP worked out at 9.14.

`COC1=C(C)C(=O)c2c(c(COC(N)=O)c3n2CCC3OC(C)=O)C1=O` (stereo not drawn) came in with a logP of 1.54.

In turn, `O=C(O)CCC(S)CCS` (stereo not drawn) registered a logP of 1.4.

`CCCCc1ccc(C(=O)OCCN(C)C)cc1`: the lipophilicity (logP) stood at 4.06.

The compound `Clc1ccc(-c2c(Cl)c(Cl)c(Cl)c(Cl)c2Cl)cc1` gave a log partition coefficient (logP) of 7.31.

In turn, `O=c1[nH]c(Nc2ccccc2)nc2c1ncn2CC(O)CO` (stereo not drawn) showed a lipophilicity (logP) of 0.4.

`COCCOCC1COC(Cn2cncn2)(c2ccc(Cl)cc2Cl)O1` (stereo not drawn) yielded a logP of 2.03.

For the compound `Clc1ccc(Sc2nc(C(Cl)(Cl)Cl)nc(C(Cl)(Cl)Cl)n2)cc1`, the logP came out at 6.67.

For the compound `Cc1cc(Cl)c(Cl)cc1Cl`, the lipophilicity (logP) stood at 4.56.

Take `Clc1ccc(Cl)c(-c2cc(Cl)c(Cl)c(Cl)c2Cl)c1`: the logP amounted to 7.19.

Regarding `OC1CCN(CCCc2ccc(CSc3ccccc3)cc2)CC1`, the logP is 3.67.

Turning to `CS(=O)(=O)ON1C(=O)c2ccc(N)cc2C1=O`, the log partition coefficient (logP) amounted to 0.8.

Compound `CCOc1ccc(OCc2ccccc2CCCN2CCC(O)CC2)cc1` displayed a log partition coefficient (logP) of 3.42.

On to `Clc1cccc(-c2c(Cl)cc(Cl)c(Cl)c2Cl)c1Cl`, for which the lipophilicity (logP) stood at 7.25.

`COc1ccc(COC(C(=O)O)c2ccccc2)cc1Cl` (stereo not drawn) came in with a logP of 2.45.

`CCCCCOc1cccc(NC(=O)OCCN2CCOCC2)c1` gave a log partition coefficient (logP) of 4.13.

For the compound `Clc1cc(Cl)c(Cl)c(-c2cc(Cl)cc(Cl)c2Cl)c1`, the logP is 7.07.

`Cc1ccc(SCCNc2ccccc2C(N)=O)cc1` displayed a lipophilicity (logP) of 3.15.

In turn, `Nc1ncnc2c1ncn2C1OC(CO)CC1O` (stereo not drawn) gave a logP of -0.61.

With `c1ccc(-c2ccc(C(c3ccccc3)n3ccnc3)cc2)cc1` (stereo not drawn), the logP turned out to be 4.77.

`Cn1c([N+](=O)[O-])cnc1-c1ccccc1` had a logP of 1.58.

For the compound `NC1C2CCC1c1ccccc1C2` (stereo not drawn), the logP was 1.63.

Consider `O=c1cc2ccccc2n[nH]1`, for which the logP turned out to be 0.68.

`O=C(O)c1cc(Oc2cc(C(F)(F)F)ccc2Cl)ccc1[N+](=O)[O-]` showed a logP of 3.7.

With `CC1CC2C3CCC4=CC(=O)C=CC4(C)C3(F)C(O)CC2(C)C1(O)C(=O)NC(C)(C)C` (stereo not drawn), the log partition coefficient (logP) was 3.2.
